Reference: patent US11174267B2, “Spiroindolinones and therapeutic uses thereof” (The Regents of the University of California, priority 2015, dated 2021)
Like-named read-outs stand apart in the source and are kept apart here.

Legend:
[1] = Solubility limit in the checkerboard assay; format: physicochemical; settings: checkerboard assay medium
Description: (§1) In all of the strains tested, the FIC index was below 0.5, fitting the classical definition of synergy.

[2] = tested on: C. albicans strain HLY4123 and clinical isolates 26 and 45; experiment: Checkerboard assay (MIC90, FIC index); format: cell-based, Candida albicans; settings: for MIC90: Candida albicans; for FICI: Compound 25 + fluconazole
Protocol: Checkerboard assays were carried out using four 24-well plates. The results on each plate were normalized by duplication of one row and one column with a row and column on another plate. C. albicans was grown in SC medium overnight and then diluted to an effective OD600 of 0.0625. Serial ten-fold dilutions of the test compounds (150 mM) were prepared in DMSO in 1.5 mL Eppendorf tubes. […] Concentrations of compound in rows 1-11 varied from 300 μM to 0.0003 nM; the last row 12 contained no compound. […] The plates were incubated in a rotary shaker/incubator at 30° C. for 16 h. The contents of each well was resuspended with a micropipettor and a 20 μL aliquot was added to a polystyrene cuvette and diluted with 680 μL of deionized water. The suspension was triturated again immediately before measuring the absorbance at 600 nm. The MIC90 values were determined as the lowest concentrations of the drugs (alone or in combination) that inhibited fungal growth by 90% compared with that of the drug-free wells.
as §1

[3] = tested on: heterozygous deletion C. albicans strains; experiment: Whole genome Haploinsufficiency Profiling (HIP); format: cell-based, Candida albicans; settings: 0.05 μM Compound 1 + 0.125 μg/ml FLC vs. 0.125 μg/ml FLC
Protocol: Whole genome Haploinsufficiency Profiling (HIP) analysis. Haplo-Insufficiency Profiling (HIP) with the Double BarCoded (DBC) library was used. A pool of 5,470 heterozygous deletion C. albicans strains constructed by Merck, to identify potential targets for the azole-synergizer, Compound 1. The collection, obtained from Merck Sharp & Dohme Corp in 96-well plates, were transferred to YPD (2% peptone, 1% yeast extract, and 2% glucose) agar plates and grown at 30° C. for 72 h. All colonies were collected from plates and pooled in SC medium, add glycerol to 15% and adjust to the final concentration of 50 OD600 nm per milliliter, store in aliquot at −80° C.
Stock pools were diluted into SC medium to an OD600 nm of 0.0875 and drug treatments were performed in a 1 ml SC medium in 24-well plates. The appropriate drug treatment concentrations were determined before screening. […]
Bioinformatics analysis of HIP. Sequencing reads were first separated by their experimental tags into treatments and then filtered by UPTAG or DNTAG. Among the reads mapped with experimental tags, more than 95% can be filtered exclusively by UPTAG or DNTAGs. Filtered reads were mapped to an artificial genome containing each individual gene in the library identified by UPTAG or DNTAG using bowtie 1.0.
Read counts per gene were calculated using a weighted arithmetic mean of mapped UPTAG and DNTAG read counts. […]

[4] = tested on: cdr1/CDR1 heterozygous mutant and cdr1/cdr1 deletion strain; experiment: Azole-synergizer effect in cdr1 mutants; format: cell-based, Candida albicans; settings: with FLC
Description: Strains and growth condition. The wild-type Candida albicans strains used were SC5314 and CaSS1. Cdr1 heterozygous were from Merck Sharp & Dohme Corp. Double Barcoded (DBC) library of heterozygous Candida albicans mutants (version 2013A). Cdr1 deficient mutant was obtained by counterselection of the GRACE library strain on 5-Fluoroorotic Acid (5-FOA) containing plate. Clinical isolated resistant C. albicans were from Dr. David Rogers. Cryptococcus neoformans var. grubii H99 (ATCC 208821) and Candida glabrata BG2, a fluconazole-resistant clinical isolate, were used. Yeast strains were cultured at 30° C. in synthetic complete (SC) medium containing 2% glucose.
Manually Screening. Of the DBC library was carried out in 96-well flat bottom plates. Briefly, BDC library grown in YPD agar were transferred to SC medium in 96-well flat bottom plates with a 96-well pin tool and grown overnight at 30° C. Cell cultures were diluted 1:800 in fresh SC medium with or without compounds and incubated at 30° C. for 24 h. Cell growth was measured with Tecan GENios Plus microplate reader (Tecan, Switzerland).
Small number of outliers in the HIP profiling indicates few off-targets for the compound. To avoid missing genes due to the bias of PCR and sequencing, a manual screening of the DBC library with Compound 1 and FLC in 96 well plates was also carried out.

[5] = tested on: NIH 3T3 cells; experiment: Cytotoxicity, LDH assay; format: cell-based; settings: concentrations up to 1.5 mM
Protocol: The cytotoxicity of spiroindoline Compounds 1, 8 and 25 were tested against NIH 3T3 cells at concentrations up to 1.5 mM (FIG. 13) using an LDH assay.

SMILES	solubility [1]	MIC90 ([2]; read-out: MICcpd (+Flc) (MIC90), clinical isolate 26, with fluconazole)	MIC90 ([2]; read-out: MICcpd (+Flc) (MIC90), clinical isolate 45, with fluconazole)	MIC90 ([2]; read-out: MICcpd (+Flc) (MIC90), strain HLY4123, with fluconazole)	MIC90 ([2]; read-out: MICcpd (MIC90), clinical isolate 26, compound alone)	MIC90 ([2]; read-out: MICcpd (MIC90), clinical isolate 45, compound alone)	MIC90 ([2]; read-out: MICcpd (MIC90), strain HLY4123, compound alone)	FIC index ([2]; all of the strains tested, with fluconazole)	toxicity of compound alone against the strains ([2]; alone, at the solubility limit, any of the strains)	FICI ([2]; clinical isolate 26)	FICI ([2]; clinical isolate 45)	FICI ([2]; strain HLY4123)	HIP profiling, mutants with significant change in abundance [3]	effect as azole-synergizer in cdr1 mutants [4]	cytotoxicity [5]
Cc1c(Cl)ccc2c1NC(=O)[C@@]21[C@H]2C(=O)N(c3ccccc3)C(=O)[C@H]2[C@H]2CN(C(=O)OCc3ccccc3)CCN21 (racemic) [Compound 25, (±)-benzyl (3R,3a′R,3b'S,9a'S)-6-chloro-7-methyl-1′,2,3′-trioxo-2′-phenyl-2′,3′,3a′,3b′,4′,6′,7′,9a′-octahydrospiro[indoline-3,9′-pyrrolo[3′,4′:3,4]pyrrolo[1,2-a]pyrazine]-5′(1′H)-carboxylate]	30 to 300 µM	0.3 µM	0.03 µM	0.03 µM	> 30 µM	> 30 µM	> 300 µM	below 0.5	did not have measurable toxicity	0.14	0.13	0.25			
Cc1c(Cl)ccc2c1NC(=O)[C@]21N[C@H](Cc2ccccc2)[C@@H]2C(=O)N(c3ccc(F)cc3)C(=O)[C@@H]21 (racemic) [Compound 1, (±)-(3R,3′R,3a′R,6a'S)-3′-benzyl-6-chloro-5′-(4-fluorophenyl)-7-methyl-2′,3′,3a′,6a′-tetrahydro-4′H-spiro[indoline-3,1′-pyrrolo[3,4-c]pyrrole]-2,4′,6′(5′H)-trione]													cdr1/CDR1 emerged as the only mutant that showed a significant change in abundance	significantly enhanced in the cdr1/CDR1 heterozygous mutant but blocked in the cdr1/cdr1 deletion strain	weak to negligible cytotoxicity
